Experimental data: ChEMBL document CHEMBL1156829 (Proc Natl Acad Sci U S A, 2008)

How the values were obtained:
Plasmodium falciparum [1] = assay: NOVARTIS: Inhibition of Plasmodium falciparum 3D7 (drug-susceptible) proliferation in erythrocyte-based infection assay; type: functional, organism-based; settings: Plasmodium falciparum, 3D7
Plasmodium falciparum [2] = assay: NOVARTIS: Inhibition of Plasmodium falciparum W2 (drug-resistant) proliferation in erythrocyte-based infection assay; type: functional, organism-based; settings: Plasmodium falciparum, W2; read-out: EC50
[3] = NOVARTIS: Cytotoxicity against human hepatocellular carcinoma cell line (Huh7); type: toxicity, cell-based, Huh-7; settings: Huh7 cells (hepatocellular carcinoma cell line)

| SMILES | EC50 (Plasmodium falciparum [1]) | EC50 (Plasmodium falciparum [2]) | CC50 [3] |
| --- | --- | --- | --- |
| Oc1cc(-c2ccccc2)nc2ccccc12 | 1060 nM | 547 nM | > 93200 nM |
| CCC1CN2CCC1CC2C(O)c1ccnc2ccccc12 (configuration not stated) | 299 nM | 627 nM | > 100000 nM |
| CCNC(=O)N(CCCCOc1ccc(C(C)(C)CC)cc1C(C)(C)CC)Cc1ccc(OC)c(OCc2ccccc2)c1 | 595 nM | 61 nM | > 10000 nM |
| O=C(Nc1nc(-c2ccccn2)cs1)c1ccc(Oc2ccc(C(=O)Nc3nc(-c4ccccn4)cs3)cc2)cc1 | 2240 nM | 602 nM | > 100000 nM |
| CC(=C(Cl)Cl)/C(Br)=C(\Br)CO | 179 nM | 59.5 nM | > 10000 nM |
| CCOC(=O)N1CCN(C(=O)c2ccc(N3CC4CC(C3)c3cccc(=O)n3C4)c(NS(=O)(=O)c3ccc4c(c3)OCCO4)c2)CC1 (configuration not stated) | 2470 nM | 589 nM | > 100000 nM |
| O=C(Nc1ccc(C2=NCCN2)cc1)Nc1cc(C(=O)Nc2ccc(C3=NCCN3)cc2)ccc1C(=O)Nc1ccc(C2=NCCN2)cc1 | 99.7 nM | 62.9 nM | > 10000 nM |
| COc1cc(C(=O)NCc2ccco2)ccc1OC1CCN(CC(c2ccccc2)c2ccccc2)CC1 | 118 nM | 58.7 nM | > 10000 nM |
| O=C(Nc1ccon1)c1cc(-c2cccnc2)nc2ccc(Cl)cc12 | 1500 nM | 606 nM | > 100000 nM |
| CN(C)CCCNc1ncnc2c1[nH]c1ccc(F)cc12 | 93.1 nM | 305 nM | 48700 nM |
| Cc1cc(-c2ccc(O)c(CN3CCCCCC3)c2)c2ccccc2n1 | 1120 nM | 345 nM | 55900 nM |
| CCc1noc(C)c1C(=O)NCCN1Cc2ccccc2OC(c2ccsc2)C1 (configuration not stated) | 827 nM | 615 nM | > 100000 nM |
| CCCN1CCc2c(sc3nc(SC)n(-c4ccccc4)c(=O)c23)C1 | 947 nM | 627 nM | > 100000 nM |
| COc1ccc(CCNC2(Cc3ccccc3)CC(C)N(C)CC2C)cc1OC (configuration not stated) | 620 nM | 268 nM | 42700 nM |
| CC(=O)N1CCC(N(C(=O)Nc2c(F)cccc2F)C(C)C)CC1 | > 12500 nM | 625 nM | > 100000 nM |
| COc1cc(C(Nc2ccccn2)c2ccc3cccnc3c2O)cc(Br)c1OC (configuration not stated) | 368 nM | 219 nM | > 35000 nM |
| COc1ccc(C2Nc3ccc([N+](=O)[O-])cc3C3C=CCC32)cc1[N+](=O)[O-] (configuration not stated) | 1500 nM | 616 nM | > 100000 nM |

| SMILES | EC50 (Plasmodium falciparum [1]) | EC50 (Plasmodium falciparum [2]) | CC50 [3] |
| --- | --- | --- | --- |
| CCCCn1c(=N)n(CC(O)c2ccc(Br)cc2)c2ccccc21 (configuration not stated) | 466 nM | 141 nM | 22500 nM |
| CC(=O)N(Cc1ccc(F)cc1)C1=C(NCCc2ccccc2)C(=O)c2ccccc2C1=O | 5.93 nM | 18.2 nM | 2910 nM |
| O=C(Nc1ccc(O)cc1)c1cccc(S(=O)(=O)N2CCCCC2)c1 | 6910 nM | 621 nM | > 100000 nM |
| C=CCc1cc(-c2cc(CC=C)c(O)c(CN(CC)CC)c2)cc(CN(CC)CC)c1O | 273 nM | 61.9 nM | > 10000 nM |
| CCC(CC)CN1CCC(O)(c2ccc3oc(C(=O)Nc4ccc(OC)cc4)cc3c2)CC1 | 954 nM | 617 nM | > 100000 nM |
| CCCC(c1nnnn1C1CCCCC1)N1CCN(C(=O)c2ccco2)CC1 (configuration not stated) | 1330 nM | 616 nM | > 100000 nM |
| Cc1ccc(-n2c(C)c(C(=O)c3ccccc3)c3cc(O)ccc32)cc1 | 508 nM | 615 nM | > 100000 nM |
| O=C(Cn1c2ccccc2c(=O)c2ccccc21)Nc1ccc([N+](=O)[O-])c(Br)c1 | 1110 nM | 632 nM | > 100000 nM |
| O=C(NCc1ccco1)C1CCN(S(=O)(=O)c2ccc(Br)cc2)CC1 | 362 nM | 629 nM | > 100000 nM |
| O=C(COc1ccccc1)NC(c1ccco1)c1cc(Cl)c2cccnc2c1O (configuration not stated) | 1490 nM | 589 nM | > 100000 nM |
| CC(C)(C)CC(C)(C)Nc1c(-c2ccccc2OC(=O)c2ccccc2Cl)nc2ccccn12 | 822 nM | 58.8 nM | > 10000 nM |
| Cc1ccc2c(c1)NC(c1ccc(F)cc1)C1=C(CC(c3ccccc3)CC1=O)N2 (configuration not stated) | 833 nM | 635 nM | > 100000 nM |
| COc1ccc(Nc2nc(NN=Cc3cccc([N+](=O)[O-])c3OC)nc(Nc3ccc([N+](=O)[O-])cc3)n2)cc1 | 221 nM | 635 nM | > 100000 nM |
| Cc1cc(Nc2ccc(Br)cc2)n2nc(C)nc2n1 | 728 nM | 595 nM | > 100000 nM |
| CC(=O)Nc1ccc(NC(=O)C(C)(C)CCl)cc1 | > 1000 nM | 62.1 nM | > 10500 nM |
| OC1(c2cccc3ccccc23)CCN(Cc2ccccc2)C1 (configuration not stated) | 457 nM | 148 nM | 23100 nM |
| Cc1ccn2c(NC(C)(C)CC(C)(C)C)c(-c3ccccc3OC(=O)/C=C/c3ccc([N+](=O)[O-])cc3)nc2c1 | > 1390 nM | 63.7 nM | > 10000 nM |
